In data set [1] the target is human Ether-a-go-go-Related Gene (hERG) potassium channel (Homo sapiens, UniProt Q12809). Briefly: Predictor hERG Fluorescence Polarization Assay. The class given is binding.
Data set [2] relates to neonatal rat ventricular cardiomyocytes (NRVCMs). Briefly: LIVE/DEAD assay of neonatal rat ventricular cardiomyocytes. The class given is cell-based. As to conditions: 50 μM; 12, 24 and 48 h; apparent beginning 12 to 24 h.
For data set [3] the test system is unchanged. In words: MTT viability assay of neonatal rat ventricular cardiomyocytes. The class given is cell-based. As to conditions: 0, 50, 100 and 200 µM; 24 or 48 h of analog exposure. On the technique in general: Tetrazolium dyes change colour on reduction, which living cells bring about.
Data set [4] in a line: Chromatographic hydrophobicity indexing. The class given is physicochemical. To be noted: C18 RP-HPLC, rank among the test compounds.
The target of data set [5] is cytochrome P450 3A4 (CYP3A4) (Homo sapiens, UniProt P08684). In words: P450-Glo CYP3A4. The class given is in vitro ADME. As to conditions: 400 μM (parent hexosamines).
Sequence of cytochrome P450 3A4 (CYP3A4) (P08684 whole entry): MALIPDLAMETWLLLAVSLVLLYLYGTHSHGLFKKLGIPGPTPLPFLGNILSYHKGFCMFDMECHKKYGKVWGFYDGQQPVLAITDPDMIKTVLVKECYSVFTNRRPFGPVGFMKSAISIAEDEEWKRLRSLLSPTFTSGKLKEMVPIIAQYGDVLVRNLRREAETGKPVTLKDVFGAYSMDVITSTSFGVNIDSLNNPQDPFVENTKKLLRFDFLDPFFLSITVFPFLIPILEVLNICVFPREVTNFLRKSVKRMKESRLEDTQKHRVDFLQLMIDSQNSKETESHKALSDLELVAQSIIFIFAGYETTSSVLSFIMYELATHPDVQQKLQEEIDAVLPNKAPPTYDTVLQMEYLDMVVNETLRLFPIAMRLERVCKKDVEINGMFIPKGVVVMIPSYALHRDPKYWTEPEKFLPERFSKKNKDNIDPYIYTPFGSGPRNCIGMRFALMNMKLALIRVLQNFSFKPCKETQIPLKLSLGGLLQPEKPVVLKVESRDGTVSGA
Where [6] appears, read: read-out: hERG inhibition, concentration range, Fig. 8B & C.

Where two headings read alike, the source gives them in different places.

Sequence of human Ether-a-go-go-Related Gene (hERG) potassium channel (Q12809 whole entry): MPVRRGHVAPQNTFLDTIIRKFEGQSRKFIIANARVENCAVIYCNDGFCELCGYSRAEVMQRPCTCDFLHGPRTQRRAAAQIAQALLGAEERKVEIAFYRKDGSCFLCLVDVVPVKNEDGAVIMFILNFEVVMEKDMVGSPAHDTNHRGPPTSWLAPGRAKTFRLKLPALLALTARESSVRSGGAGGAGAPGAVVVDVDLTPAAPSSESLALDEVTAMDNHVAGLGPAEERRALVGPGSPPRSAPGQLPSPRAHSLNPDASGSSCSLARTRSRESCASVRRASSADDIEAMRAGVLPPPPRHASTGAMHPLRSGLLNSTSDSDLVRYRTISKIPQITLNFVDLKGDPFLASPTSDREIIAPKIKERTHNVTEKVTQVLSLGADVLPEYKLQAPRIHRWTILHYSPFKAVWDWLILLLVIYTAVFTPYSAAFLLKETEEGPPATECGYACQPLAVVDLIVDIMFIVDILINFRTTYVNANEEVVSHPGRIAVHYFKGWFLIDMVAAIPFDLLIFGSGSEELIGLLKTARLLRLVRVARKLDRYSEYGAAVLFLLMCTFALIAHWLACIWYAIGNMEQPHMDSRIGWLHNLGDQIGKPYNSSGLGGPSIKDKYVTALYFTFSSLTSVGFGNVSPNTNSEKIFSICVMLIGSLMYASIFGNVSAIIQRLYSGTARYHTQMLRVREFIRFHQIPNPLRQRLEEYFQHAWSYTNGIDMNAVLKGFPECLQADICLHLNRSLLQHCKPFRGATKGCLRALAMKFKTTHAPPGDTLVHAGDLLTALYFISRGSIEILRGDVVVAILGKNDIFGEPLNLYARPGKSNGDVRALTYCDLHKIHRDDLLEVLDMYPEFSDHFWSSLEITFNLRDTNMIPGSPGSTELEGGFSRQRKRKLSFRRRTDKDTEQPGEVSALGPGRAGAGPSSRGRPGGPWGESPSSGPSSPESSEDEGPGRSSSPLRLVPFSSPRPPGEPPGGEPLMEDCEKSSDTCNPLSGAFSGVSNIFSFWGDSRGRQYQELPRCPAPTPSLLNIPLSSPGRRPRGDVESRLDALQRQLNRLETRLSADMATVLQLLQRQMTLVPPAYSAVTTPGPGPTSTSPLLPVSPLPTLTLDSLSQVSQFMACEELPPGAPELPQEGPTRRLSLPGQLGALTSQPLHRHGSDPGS

For the compound `CCCC(=O)OC1OC(CO)[C@@H](OC(=O)CCC)[C@H](OC(=O)CCC)C1NC(C)=O` (some centres unmarked) [1,3,4-O-Bu3GlcNAc], the “hERG inhibition (detectable or not)” value in data set [1] (up to 1 mM, the highest concentration tested) is reported as “no detectable inhibition”. For the compound `CCCC(=O)OC[C@H]1OC(O)[C@@H](NC(C)=O)[C@@H](OC(=O)CCC)[C@@H]1OC(=O)CCC` (some centres unmarked) [3,4,6-O-Bu3ManNAc], in data set [2], the “cardiomyocyte cell death (LIVE/DEAD)” value is “Significantly higher cell death”. Besides, the “NRVCM cell viability (MTT)” value in data set [3] is recorded as “significantly reduced NRVCM cell viability”. Also, the “fold greater hERG potency versus 3,4,6-O-Bu3GlcNAc” value in data set [1] (ManNAc analog versus GlcNAc analog) is listed as ~ 13 fold. In data set [1] (setting [6]), the IC50 is 1 to 100 µM. Regarding `CCCC(=O)OC[C@H]1OC(O)[C@H](NC(C)=O)[C@@H](OC(=O)CCC)[C@@H]1OC(=O)CCC` (some centres unmarked) [3,4,6-O-Bu3GlcNAc], in data set [2], the “cardiomyocyte cell death (LIVE/DEAD)” value is listed as “Significantly higher cell death”. Besides, in data set [3], the “NRVCM cell viability (MTT)” value is listed as “significantly reduced NRVCM cell viability”. Moreover, the IC50 in data set [1] (setting [6]) was 1 to 100 µM. On to `CCCC(=O)OC1O[C@H](CO)[C@@H](OC(=O)CCC)[C@H](OC(=O)CCC)[C@H]1NC(=O)CN=[N+]=[N-]` (some centres unmarked) [1,3,4-O-Bu3GlcNAz], for which the IC50 in data set [1] (read-out: hERG inhibition IC50, fluorescence polarization, doses 69.7 pM to 1 mM) was 2.85 µM. In the case of `CCCC(=O)OC1OC(CO)[C@@H](OC(=O)CCC)[C@H](OC(=O)CCC)C1NC(=O)CN=[N+]=[N-]` (some centres unmarked) [1,3,4-O-Bu3ManNAz], the “lipophilicity rank by experimental CHI score” value in data set [4] is recorded as “second highest lipophilicity”. Consider `CC(=O)N[C@H]1[C@@H](O)[C@H](O)[C@@H](CO)O[C@@H]1O` [ManNAc], for which the “effect on CYP3A4” value in data set [5] is “negligible effect”.

The values above are taken from article PMC6292510 (Molecular pharmaceutics, 2017).
